Patent US8372967B2, “Compounds and methods for modulating expression of GCCR” (Isis Pharmaceuticals, Inc., priority 2006, dated 2013)
Strand notation (5' to 3'): a small letter for the sugar, then the base; units joined by * are phosphorothioate-linked, units joined directly phosphodiester-linked; [ ] holds rarer units or linkages, { } end groups; capitals alone tell only the bases. e = 2'-O-(2-methoxyethyl) (MOE); l = locked nucleic acid (LNA); [5mC] = 5-methylcytosine; d = 2'-deoxy (DNA)

How the values were obtained:
DGAT2 mRNA = assay: Antisense inhibition of DGAT2 in A10 cells, 75 nM (Table 81); format: cell-based, rat; details: approximately 24 hours
Procedure: Short antisense compounds targeted to a DGAT2 nucleic acid were tested for their effects on DGAT2 mRNA in vitro. Cultured A10 cells in a 96-well plate were treated with 75 nM of short antisense compound. After a treatment period of approximately 24 hours, RNA was isolated from the cells and DGAT2 mRNA levels were measured by quantitative real-time PCR, as described herein. DGAT2 mRNA levels were adjusted according to total RNA content as measured by RIBOGREEN®. Results are presented as percent inhibition of DGAT2, relative to untreated control cells in Table 81.

rat DGAT2 mRNA = assay: Dose-dependent inhibition of DGAT2 in A10 cells (Tables 82, 83); format: cell-based
Procedure: Additional short antisense compounds targeted to DGAT2 mRNA were tested in vitro in a dose-response experiment. A10 cells were prepared as described above and treated with 6.25, 12.5, 25.0, 50.0, 100.0, and 200.0 nM short antisense compounds to determine if DGAT2 inhibition occurs in a dose-dependent manner. […] Results are presented as percent inhibition, relative to untreated control cells.
Additional short antisense compounds targeted to DGAT2 mRNA were tested in vitro. A10 cells were prepared as described above and treated with 0.62, 1.85, 5.56, 16.67, 50.0, and 150.0 nM short antisense compounds to determine if DGAT2 inhibition occurs in a dose-dependent manner. DGAT2 mRNA was measured using quantitative real-time PCR, as described herein. […] Results are presented as percent inhibition of rat DGAT2, relative to untreated control cells.

[1] = HbA1c status in ZDF rat (Table 72); format: in vivo; details: ZDF rat, 400 nM/kg i.p. once a week
Procedure: ISIS 388625, 388626 and control oligo ISIS 388628 were analyzed for their effect on ZDF rat plasma glucose levels and HbA1c. The leptin receptor deficient Zucker diabetic fatty (ZDF) rat is a useful model for the investigation of type 2 diabetes. Diabetes develops spontaneously in these male rats at ages 8-10 weeks, and is associated with hyperphagia, polyuria, polydipsia, and impaired weight gain, symptoms which parallel the clinical symptoms of diabetes (Phillips M S, et al., 1996, Nat Genet. 13, 18-19). Six week old ZDF rats were injected intraperitoneally with short antisense compound at a dose of 400 nM/kg once a week for twelve weeks. Data are illustrated in Tables 71 and 72.

rat SGLT2 mRNA = assay: Rat SGLT2 mRNA in kidney, 1-10-1 and 1-10-2 MOE gapmers, Sprague-Dawley rats (Table 63); format: in vivo
Text: 1-10-1 and 1-10-2 MOE gapmer antisense compounds, provided in Table 62, were designed to target different regions of the mouse or rat SGLT2 RNA. All short antisense compounds in Table 62 are chimeric oligonucleotides (“gapmers”) either 12 or 13 nucleotides in length, composed of a central “gap” segment consisting of ten 2′-deoxynucleotides, which are flanked on the 5′ side by a one-nucleoside “wing” and on the 3′ side by a two or one-nucleotide “wing”. […] All cytidine residues are 5-methylcytidines.
The short antisense compounds were analyzed for their effect on rat SGLT2 mRNA levels. Data are ranges taken from three experiments in which Male Sprague-Dawley rats (170-200 g) were dosed twice per week for three weeks with 450, 150 or 50 nmol/kg of either a 1-10-1 or 1-10-2 MOE gapmer given by intraperitoneal injection. Rats were sacrificed 48 hours following last administration and evaluated for SGLT2 mRNA levels in kidney. Target levels were determined by RT, real-time PCR as described by other examples herein. PCR results were normalized to an internal ISIS control.

mouse SGLT2 mRNA = assay: Mouse SGLT2 mRNA in kidney, MOE versus Methyleneoxy BNA gapmers (Table 69); format: in vivo; details: Balb/c mouse kidney
Procedure: The effect of ISIS 3796921-10-1 MOE gapmer and ISIS 3886252-8-2 MOE gapmer are compared with the effect of ISIS 3921701-10-1 Methyleneoxy BNA Gapmer and ISIS 3921732-8-2 Methyleneoxy BNA Gapmer (see Table 69) on mouse SGLT2 mRNA levels in vivo. Data are taken from three experiments in which male 6-week old Balb/c mice were dosed twice per week for three weeks with 5, 25 and 125 nmol/kg of either the ISIS 3796921-10-1 MOE gapmer or the ISIS 3886252-8-2 MOE gapmer given by intraperitoneal injection. Mice were sacrificed 48 hours following last administration and evaluated for SGLT2 mRNA levels in kidney. Target levels were determined by RT, real-time PCR as described by other examples herein. PCR results were normalized to an internal ISIS control. The data are expressed as percent change (“+” indicates an increase, “−” indicates a decrease) relative to saline treated animals and are illustrated in Table 69.

[2] = 5 nmol/kg i.p. twice per week for three weeks
[3] = 25 nmol/kg i.p. twice per week for three weeks
[4] = 125 nmol/kg i.p. twice per week for three weeks

| Substance | % Control (DGAT2 mRNA) | percent inhibition of rat DGAT2 (rat DGAT2 mRNA; 0.62 nM (Table 83)) | percent inhibition of rat DGAT2 (rat DGAT2 mRNA; 1.85 nM (Table 83)) | percent inhibition of rat DGAT2 (rat DGAT2 mRNA; 5.56 nM (Table 83)) | percent inhibition of rat DGAT2 (rat DGAT2 mRNA; 16.67 nM (Table 83)) | percent inhibition of rat DGAT2 (rat DGAT2 mRNA; 50 nM (Table 83)) | percent inhibition of rat DGAT2 (rat DGAT2 mRNA; 150 nM (Table 83)) | also measured |
| --- | --- | --- | --- | --- | --- | --- | --- | --- |
| 372524 (antisense eG*e[5mC]*e[5mC]*dA*dG*dG*d[5mC]*dA*dT*dG*dG*dA*dG*e[5mC]*eT*e[5mC]) [compound 372524] | 21 % Control | 7% | 0% | 5% | 30% | 68% | 91% |  |
| 372530 (antisense eT*e[5mC]*eG*dG*d[5mC]*d[5mC]*d[5mC]*d[5mC]*dA*dG*dG*dA*dG*e[5mC]*e[5mC]*e[5mC]) [compound 372530] | 35 % Control | 0% | 2% | 0% | 10% | 38% | 78% |  |
| 372546 (antisense eT*eT*eG*dG*dT*d[5mC]*dT*dT*dG*dT*dG*dA*dT*eT*eG*eT) [compound 372546] | 34 % Control | 0% | 2% | 11% | 4% | 48% | 78% |  |
| 372563 (antisense eA*eG*d[5mC]*d[5mC]*dA*dG*dG*dT*dG*dA*d[5mC]*dA*eG*eA) [compound 372563] | 48 % Control | 0% | 0% | 0% | 1% | 4% | 46% |  |
| 372578 (antisense eT*eG*dT*dG*dT*d[5mC]*dT*dT*d[5mC]*dA*d[5mC]*d[5mC]*eA*eG) [compound 372578] | 59 % Control | 0% | 0% | 0% | 2% | 7% | 42% |  |
| 372580 (antisense eG*eG*dT*dT*dG*dT*dG*dT*dG*dT*d[5mC]*dT*eT*e[5mC]) [compound 372580] | 48 % Control | 0% | 5% | 5% | 3% | 16% | 42% |  |
| 372586 (antisense eG*eT*dT*d[5mC]*d[5mC]*dT*dG*dG*dT*dG*dG*dT*e[5mC]*eA) [compound 372586] | 40 % Control | 0% | 0% | 0% | 0% | 7% | 55% | percent inhibition of DGAT2 (rat DGAT2 mRNA; 6.25 nM (Table 82)): 19%; percent inhibition of DGAT2 (rat DGAT2 mRNA; 12.5 nM (Table 82)): 0%; percent inhibition of DGAT2 (rat DGAT2 mRNA; 50.0 nM (Table 82)): 22%; percent inhibition of DGAT2 (rat DGAT2 mRNA; 100.0 nM (Table 82)): 45%; percent inhibition of DGAT2 (rat DGAT2 mRNA; 200.0 nM (Table 82)): 77% |
| 372594 (antisense eA*e[5mC]*dA*dG*dA*dA*dG*dG*d[5mC]*dA*d[5mC]*d[5mC]*e[5mC]*eA) [compound 372594] | 77 % Control | 0% | 0% | 0% | 0% | 2% | 15% |  |
| 372602 (antisense e[5mC]*e[5mC]*dA*dG*dG*d[5mC]*dA*dT*dG*dG*dA*dG*e[5mC]*eT) [compound 372602] | 39 % Control | 0% | 0% | 10% | 0% | 19% | 51% | percent inhibition of DGAT2 (rat DGAT2 mRNA; 6.25 nM (Table 82)): 0%; percent inhibition of DGAT2 (rat DGAT2 mRNA; 12.5 nM (Table 82)): 0%; percent inhibition of DGAT2 (rat DGAT2 mRNA; 50.0 nM (Table 82)): 18%; percent inhibition of DGAT2 (rat DGAT2 mRNA; 100.0 nM (Table 82)): 47%; percent inhibition of DGAT2 (rat DGAT2 mRNA; 200.0 nM (Table 82)): 76% |
| 372618 (antisense eG*eT*dG*dG*dT*dA*d[5mC]*dA*dG*dG*dT*d[5mC]*eG*eA) [compound 372618] | 29 % Control | 0% | 0% | 0% | 0% | 30% | 60% | percent inhibition of DGAT2 (rat DGAT2 mRNA; 6.25 nM (Table 82)): 0%; percent inhibition of DGAT2 (rat DGAT2 mRNA; 12.5 nM (Table 82)): 5%; percent inhibition of DGAT2 (rat DGAT2 mRNA; 50.0 nM (Table 82)): 27%; percent inhibition of DGAT2 (rat DGAT2 mRNA; 100.0 nM (Table 82)): 65%; percent inhibition of DGAT2 (rat DGAT2 mRNA; 200.0 nM (Table 82)): 80% |
| 372624 (antisense eT*eG*dG*dT*d[5mC]*dT*dT*dG*dT*dG*dA*dT*eT*eG) [compound 372624] | 56 % Control | 0% | 0% | 0% | 1% | 16% | 38% |  |
| 388625 (eT*eG*dT*dT*d[5mC]*d[5mC]*dA*dG*d[5mC]*d[5mC]*e[5mC]*eA) [compound 388625] |  |  |  |  |  |  |  | Percentage HbA1c ([1]; Day 40): 6.5%; Percentage HbA1c ([1]; Day 55): 5.8%; Percentage HbA1c ([1]; Day 68): 4.3% |
| 388628 (eT*eA*dG*d[5mC]*d[5mC]*dG*d[5mC]*d[5mC]*d[5mC]*dA*e[5mC]*eA) [compound 388628] |  |  |  |  |  |  |  | Percentage HbA1c ([1]; Day 40): 8.0%; Percentage HbA1c ([1]; Day 55): 9.1%; Percentage HbA1c ([1]; Day 68): 7.8% |
| ISIS 382675 (eT*dA*dG*d[5mC]*d[5mC]*dA*d[5mC]*d[5mC]*dA*dA*d[5mC]*eT*eG) |  |  |  |  |  |  |  | % change in SGLT2 expression relative to saline (rat SGLT2 mRNA; 50 nmol/kg i.p. twice per week for three weeks): −50%; % change in SGLT2 expression relative to saline (rat SGLT2 mRNA; 150 nmol/kg i.p. twice per week for three weeks): −65%; % change in SGLT2 expression relative to saline (rat SGLT2 mRNA; 450 nmol/kg i.p. twice per week for three weeks): −80% |
| ISIS 392170: 1-10-1 Methyleneoxy BNA Gapmer, SGLT2 (lT*dG*dT*dT*d[5mC]*d[5mC]*dA*dG*d[5mC]*d[5mC]*d[5mC]*lA) |  |  |  |  |  |  |  | SGLT2 mRNA, percent change relative to saline treated animals (mouse SGLT2 mRNA; [2]): −23%; SGLT2 mRNA, percent change relative to saline treated animals (mouse SGLT2 mRNA; [3]): −54%; SGLT2 mRNA, percent change relative to saline treated animals (mouse SGLT2 mRNA; [4]): −69% |
| ISIS 392173: 2-8-2 Methyleneoxy BNA Gapmer, SGLT2 (lT*lG*dT*dT*d[5mC]*d[5mC]*dA*dG*d[5mC]*d[5mC]*l[5mC]*lA) |  |  |  |  |  |  |  | SGLT2 mRNA, percent change relative to saline treated animals (mouse SGLT2 mRNA; [2]): −44%; SGLT2 mRNA, percent change relative to saline treated animals (mouse SGLT2 mRNA; [3]): −57%; SGLT2 mRNA, percent change relative to saline treated animals (mouse SGLT2 mRNA; [4]): −75% |
